biological target: T1, AR-LBD wt (Homo sapiens, UniProt P10275); test: Lanthascreen TR-FRET AR coactivator (D11-FxxLF) assay, AR-LBD wt; format: biochemical; conditions: TR-FRET, D11-FxxLF peptide, DHT = EC80; read-out: Activity (AR wt TR-FRET)
T1 sequence (P10275 669-900 limits assumed): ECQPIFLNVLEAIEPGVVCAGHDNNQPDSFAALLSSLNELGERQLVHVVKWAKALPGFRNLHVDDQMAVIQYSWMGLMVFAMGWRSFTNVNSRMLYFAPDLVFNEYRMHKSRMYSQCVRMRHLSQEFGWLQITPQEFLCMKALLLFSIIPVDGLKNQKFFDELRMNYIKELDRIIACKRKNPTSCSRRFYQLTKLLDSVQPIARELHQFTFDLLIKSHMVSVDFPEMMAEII

IC50, > 100 µM:
O=C(N/N=C/c1ccccc1)c1cc2ccccc2cc1O [MDG628, 3-hydroxy-N′-benzylidene-2-naphthohydrazide]
O=C(N/N=C/c1cccc(Cl)c1Cl)c1cc2ccccc2cc1O [MDG496]
CCN(CC)c1ccc(/C=N/NC(=O)c2cc3ccccc3cc2O)cc1 [MDG493]
CC(C)(C)c1ccc(O)c(/C=N/NC(=O)c2cc3ccccc3cc2O)c1 [MDG610]
Cc1ccccc1/C=N/NC(=O)c1cc2ccccc2cc1O [MDG492]
CCOc1ccc(/C=N/NC(=O)c2cc3c(ccc4ccccc43)o2)cc1 [MDG512]
COc1ccc(Br)cc1/C=N/NC(=O)c1cc2ccccc2cc1O [MDG620]
C/C(=N\NC(=O)c1cc2ccccc2cc1O)c1ccco1 [MDG604]
CCOc1ccc(/C=N/NC(=O)c2cc3ccccc3cc2O)cc1O [MDG488]
O=C(N/N=C/c1ccc2ccccc2c1O)c1cc2ccccc2cc1O [MDG624]
O=C(N/N=C/c1cccc(OCc2ccccc2)c1)c1cc2ccccc2cc1O [MDG495]
COc1cc(/C=N/NC(=O)c2cc3ccccc3cc2O)cc(OC)c1O [MDG489, 3-hydroxy-N′-(4-hydroxy-3,5-dimethoxybenzylidene)-2-naphthohydrazide]
O=C(N/N=C/c1ccc2ccccc2c1)c1ccccc1O [MDG487]
O=C(N/N=C/c1ccc(O)c(Br)c1)c1cc2c(ccc3ccccc32)o1 [MDG500]
COc1ccc(C(=O)NNC(=O)c2cc3ccccc3cc2O)cc1 [MDG484]
